Source: patent US20250122155A1, “NOVEL INDOLE DERIVATIVE, PHARMACEUTICAL COMPOSITION COMPRISING SAME, AND USE THEREOF” (MITOIMMUNE THERAPEUTICS INC., priority 2021, published 2025)

Tests used:
PC-12 cells = experiment: Cell death protective effect in adrenal cells against Erastin, glutamate and RSL3 (LDH); format: cell-based, rat; conditions: 24 hours
Procedure: (§1) In order to identify the protective effect on adrenal cells, PC-12 cells were divided into 96-well plates by 1×10^4 and cultured for 18 to 24 hours. The compounds of Examples were diluted to final concentrations of 0.1 and 1.0 μM in Erastin, 0.01 and 0.1 in glutamate, and 0.3 and 3.0 μM in RSL3, treated in each well, and incubated for 15 to 20 minutes. Erastin, glutamate, and RSL3 were treated to have final concentrations of 1 μM, 10 mM, and 0.3 μM, respectively, and cultured for 24 hours. In order to identify the protective effect of each compound, the degree of LDH extracellular secretion was measured using cytotoxicity LDH assay kit [Dojindo; CK12]. Briefly, at the time when the treatment of the cells with Erastin, glutamate, and RSL3 for 24 hours is completed, the supernatants containing the cells are taken by 70 μL and transferred to a new 96-well plate. The assay buffer included in the kit is added in an amount of 70 μL/well (the same amount as the sample) thereto, and then the plate is wrapped with a foil and the reaction is performed at room temperature for 15 minutes. After observing the changed color of the sample, the stop solution was added in an amount of 35 µL/well thereto, and then the 0 inhibition value was calculated by measuring the absorbance value at a wavelength of 490 nm using an iD3 spectrophotometer.

H9C2 cells = experiment: Cell death protective effect in cardiac myocytes against Erastin, glutamate and RSL3 (LDH); format: cell-based, rat; conditions: 24 hours
Procedure: as §1, with “on cardiac” for “on adrenal”, “cells, H9C2” for “cells, PC-12”, “and 1 μM,” for “and 1.0 μM in Erastin, 0.01 and 0.1 in glutamate, and 0.3 and 3.0 μM in RSL3,”, “μM, 25” for “μM, 10”, “and 0.5” for “and 0.3”, “minutes.” for “minutes. After observing the changed color of the sample, the stop solution was added in an amount of 35 µL/well thereto, and then the 0 inhibition value was calculated by measuring the absorbance value at a wavelength of 490 nm using an iD3 spectrophotometer.”

NRK-49F cells = experiment: Cell death protective effect in renal fibroblasts against Erastin, glutamate and RSL3 (LDH); format: cell-based, rat; conditions: 24 hours
Procedure: In order to identify the protective effect on renal fibroblasts, NRK-49F cells were divided into 96-well plates by 1×10^4 and cultured for 18 to 24 hours. The compounds of Examples were diluted to final concentrations of 0.1 and 1 μM, treated in each well, and incubated for 15 to 20 minutes. Erastin, glutamate, and RSL3 were treated to have final concentrations of 3 μM, 75 mM, and 3 μM, respectively, and cultured for 24 hours. In order to identify the protective effect of each compound, the degree of LDH extracellular secretion was measured using cytotoxicity LDH assay kit [Dojindo; CK12]. Briefly, at the time when the treatment of the cells with Erastin, glutamate, and RSL3 for 24 hours is completed, the supernatants containing the cells are taken by 70 μl and transferred to a new 96-well plate. The assay buffer included in the kit is added in an amount of 70 μL/well (the same amount as the sample) thereto, and then the plate is wrapped with a foil and the reaction is performed at room temperature for 15 minutes.

ARPE-19 cells = experiment: Cell death protective effect in retinal epithelial cells against Erastin and RSL3 (LDH); format: cell-based, human; conditions: 24 hours
Procedure: In order to identify the protective effect on retinal epithelial cells, ARPE-19 cells were divided into 96-well plates by 1×10^4 and cultured for 18 to 24 hours. The compounds of Examples were diluted to final concentrations of 0.03 and 0.3 μM, treated in each well, and incubated for 20 minutes. Erastin, and RSL3 were treated to have final concentrations of 10 μM, and 0.3 μM, respectively, and cultured for 24 hours. In order to identify the protective effect of each compound, the degree of LDH extracellular secretion was measured using cytotoxicity LDH assay kit [Dojindo; CK12]. Briefly, at the time when the treatment of the cells with Erastin, and RSL3 for 24 hours is completed, the supernatants containing the cells are taken by 70 μL and transferred to a new 96-well plate. The assay buffer included in the kit is added in an amount of 70 μL/well (the same amount as the sample) thereto, and then the plate is wrapped with a foil and the reaction is performed at room temperature for 15 minutes.

MLE-12 cells = experiment: Cell death protective effect in lung epithelial cells against RSL3 (LDH); format: cell-based, rat; conditions: MLE-12, RSL3 1.0 μM, 24 hours
Procedure: In order to identify the protective effect on lung epithelial cells, MLE-12 cells were divided into 96-well plates by 5×10^3 and cultured for 18 to 24 hours. The compounds of Examples were diluted to final concentrations of 0.1 and 1.0 μM, treated in each well, and incubated for 20 minutes. RSL3 was treated to have final concentrations of 1.0 μM, respectively, and cultured for 24 hours. In order to identify the protective effect of each compound, the degree of LDH extracellular secretion was measured using cytotoxicity LDH assay kit [Dojindo; CK12]. Briefly, at the time when the treatment of the cells with RSL3 for 24 hours is completed, the supernatants containing the cells are taken by 70 μL and transferred to a new 96-well plate. The assay buffer included in the kit is added in an amount of 70 μL/well (the same amount as the sample) thereto, and then the plate is wrapped with a foil and the reaction is performed at room temperature for 15 minutes.

[1] = PC-12, Erastin 1 μM, compound 0.1 μM
[2] = PC-12, Erastin 1 μM, compound 1.0 μM
[3] = PC-12, Glutamate 10 mM, compound 0.01 μM
[4] = PC-12, Glutamate 10 mM, compound 0.1 μM
[5] = PC-12, RSL3 0.3 μM, compound 0.3 μM
[6] = PC-12, RSL3 0.3 μM, compound 3.0 μM
[7] = H9C2, Erastin 1 μM, compound 0.1 μM
[8] = H9C2, Erastin 1 μM, compound 1.0 μM
[9] = H9C2, Glutamate 25 mM, compound 0.1 μM
[10] = H9C2, Glutamate 25 mM, compound 1.0 μM
[11] = H9C2, RSL3 0.5 μM, compound 0.1 μM
[12] = H9C2, RSL3 0.5 μM, compound 1.0 μM
[13] = Glutamate 75 mM, compound 0.1 μM
[14] = Glutamate 75 mM, compound 1.0 μM
[15] = ARPE-19, Erastin 10 μM, compound 0.03 μM
[16] = ARPE-19, Erastin 10 μM, compound 0.3 μM
[17] = ARPE-19, RSL3 0.3 μM, compound 0.03 μM
[18] = ARPE-19, RSL3 0.3 μM, compound 0.3 μM

| SMILES | inhibition (%) (PC-12 cells; [1]) | inhibition (%) (PC-12 cells; [2]) | inhibition (%) (PC-12 cells; [3]) | inhibition (%) (PC-12 cells; [4]) | inhibition (%) (PC-12 cells; [5]) | inhibition (%) (PC-12 cells; [6]) | inhibition (%) (H9C2 cells; [7]) | inhibition (%) (H9C2 cells; [8]) | inhibition (%) (H9C2 cells; [9]) | inhibition (%) (H9C2 cells; [10]) | inhibition (%) (H9C2 cells; [11]) | inhibition (%) (H9C2 cells; [12]) | inhibition (%) (NRK-49F cells; Erastin 3 μM, compound 0.1 μM) | inhibition (%) (NRK-49F cells; Erastin 3 μM, compound 1.0 μM) | inhibition (%) (NRK-49F cells; [13]) | inhibition (%) (NRK-49F cells; [14]) | inhibition (%) (NRK-49F cells; RSL3 3 μM, compound 0.1 μM) | inhibition (%) (NRK-49F cells; RSL3 3 μM, compound 1.0 μM) | inhibition (%) (ARPE-19 cells; [15]) | inhibition (%) (ARPE-19 cells; [16]) | other results |
| --- | --- | --- | --- | --- | --- | --- | --- | --- | --- | --- | --- | --- | --- | --- | --- | --- | --- | --- | --- | --- | --- |
| COCCOCCOCc1cc(NC2CCCC2)c2[nH]c(-c3ccccc3)cc2c1 [Example 39, N-cyclopentyl-5-[2-(2-methoxyethoxy)ethoxymethyl]-2-phenyl-1H-indol-7-amine] | 100% | 100% | 52% | 97% | 100% | 100% | 100% | 100% | 96% | 96% | 96% | 96% | 99% | 98% | 100% | 100% | 98% | 99% | 100% | 100% | inhibition (%) (ARPE-19 cells; [17]): 100%; inhibition (%) (ARPE-19 cells; [18]): 100%; inhibition (%) (MLE-12 cells; compound 0.1 μM): 89%; inhibition (%) (MLE-12 cells; compound 1.0 μM): 89% |
| COCCOCc1cc(NC2CCOCC2)c2[nH]c(-c3ccccc3)cc2c1 [Example 1, 5-(2-methoxyethoxymethyl)-2-phenyl-N-tetrahydropyran-4-yl-1H-indol-7-amine] | 100% | 100% | 53% | 98% | 100% | 100% | 100% | 100% | 96% | 97% | 100% | 98% | 99% | 99% | 100% | 100% | 99% | 99% | 100% | 100% | inhibition (%) (ARPE-19 cells; [17]): 95%; inhibition (%) (ARPE-19 cells; [18]): 100%; inhibition (%) (MLE-12 cells; compound 0.1 μM): 100%; inhibition (%) (MLE-12 cells; compound 1.0 μM): 100% |
| COCCOCc1cc(NCC2CCOCC2)c2[nH]c(-c3ccccc3)cc2c1 [Example 4, 5-2(methoxyethoxymethyl)-2-phenyl-N-(tetrahydropyran-4-ylmethyl)-1H-indol-7-amine] | 100% | 100% | 53% | 96% | 100% | 100% | 100% | 100% | 97% | 96% | 97% | 96% | 99% | 99% | 99% | 100% | 98% | 99% | 100% | 100% | inhibition (%) (ARPE-19 cells; [17]): 100%; inhibition (%) (ARPE-19 cells; [18]): 100%; inhibition (%) (MLE-12 cells; compound 0.1 μM): 90%; inhibition (%) (MLE-12 cells; compound 1.0 μM): 91% |
| CCOC(=O)c1ccc(NC2CCCCC2)c(N)c1 [Ferrostatin-1, reference compound] | 100% | 100% | 35% | 98% | 100% | 100% | 100% | 100% | 98% | 97% | 96% | 96% | 99% | 98% | 95% | 100% | 94% | 99% | 86% | 100% | inhibition (%) (ARPE-19 cells; [17]): 61%; inhibition (%) (ARPE-19 cells; [18]): 100%; inhibition (%) (MLE-12 cells; compound 0.1 μM): 100%; inhibition (%) (MLE-12 cells; compound 1.0 μM): 100% |
| COCCOCc1cc(NC2CCN(C(C)=O)CC2)c2[nH]c(-c3ccccc3)cc2c1 [Example 30, 1-[4-[[5-(2-methoxyethoxymethyl)-2-phenyl-1H-indol-7-yl]amino]piperidyl]-1-ethanone] | 86% | 100% | 33% | 95% | 100% | 100% | 0% | 100% | 90% | 98% | 0% | 96% | 98% | 98% | 97% | 100% | 52% | 98% | 80% | 100% | inhibition (%) (ARPE-19 cells; [17]): 60%; inhibition (%) (ARPE-19 cells; [18]): 100%; inhibition (%) (MLE-12 cells; compound 0.1 μM): 84%; inhibition (%) (MLE-12 cells; compound 1.0 μM): 95% |
